Measured values: the supplement of paper PMC10307832

Columns and labels:
Experiment in all cases: relative viability (nuclei count vs DMSO), 5 days (fraction); higher = more cells survive
Sulindac = compound: CC1=C(CC(=O)O)c2cc(F)ccc2/C1=C\c1ccc([S+](C)[O-])cc1 [Sulindac]
In short: (§1)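 Lung cancer cell lines were seeded into 1536-well plates, kept overnight at 37 °C and pinned with five library-drug doses (not always all listed) spaced by √10. After 5 days, nuclei were Hoechst-stained, imaged at 4× and counted with MetaXpress. Viability is treated-well nuclei over vehicle-well nuclei, taken as a median across plates. Plates needed control CV below 25% and at least one doubling.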

Staurosporine = compound: CN[C@@H]1C[C@H]2O[C@@](C)([C@@H]1OC)n1c3ccccc3c3c4c(c5c6ccccc6n2c5c31)C(=O)NC4 [Staurosporine]
In short: as §1

5-Fluorouracil = compound: O=c1[nH]cc(F)c(=O)[nH]1 [5-Fluorouracil]
In short: as §1

[1] = compound: CN[C@@H]1C[C@H]2O[C@@](C)([C@@H]1OC)n1c3ccccc3c3c4c(c5c6ccccc6n2c5c31)C(=O)NC4 [Staurosporine] + C[C@@H](Oc1cc(-c2cnn(C3CCNCC3)c2)cnc1N)c1c(Cl)ccc(F)c1Cl [Crizotinib] (partner 1 µM)
In short: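 Relative viability divides the nuclei count in treated wells by that in vehicle wells. Lung cancer cell lines were seeded in 1536-well plates, dosed by pin tool the next day, and fixed and stained after 5 days in one step with final 0.05% Triton X-100, 1% formaldehyde and 1 ug/ml Hoechst. Dosing was a single drug or a fixed anchor-drug dose plus five library-drug doses (not always all listed) in √10 steps, and values are medians of duplicate plates imaged at 4×.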

Row | Cell Line | relative viability (Sulindac; 0.08 µM) | relative viability (Sulindac; 0.253 µM) | relative viability (Sulindac; 0.8 µM) | relative viability (Sulindac; 2.53 µM) | relative viability (Sulindac; 8 µM) | relative viability (Staurosporine; 0.01581 µM) | relative viability (Staurosporine; 0.05 µM) | relative viability (Staurosporine; 0.1581 µM) | relative viability (Staurosporine; 0.5 µM) | relative viability (5-Fluorouracil; 0.02 µM) | relative viability (5-Fluorouracil; 0.2 µM) | relative viability (5-Fluorouracil; 0.6325 µM) | relative viability (5-Fluorouracil; 2 µM) | relative viability ([1]; first compound 0.005 µM) | relative viability ([1]; first compound 0.01581 µM) | relative viability ([1]; first compound 0.05 µM) | relative viability ([1]; first compound 0.1581 µM) | relative viability ([1]; first compound 0.5 µM) | relative viability (Staurosporine; 0.005 µM)
1 | NCI-H2405 | 1.05 | 1.09 | 0.958 | 0.944 | 1.16 | 0.209 | 0.158 | 0.13 | 0.118 | 1.01 | 1.17 | 0.956 | 0.75 | 0.681 | 0.319 | 0.146 | 0.125 | 0.106 | 
2 | NCI-H3122 | 1.04 | 1.03 | 0.949 | 0.962 | 1.08 |  | 0.893 | 0.255 | 0.357 | 1 | 0.848 | 0.39 | 0.241 | 0.443 | 0.465 | 0.59 | 0.32 | 0.318 | 1.04
3 | PC-3 [JPC-3] | 1.16 | 1.03 | 0.926 | 1.02 | 1.12 | 0.36 | 0.698 | 0.384 | 0.317 | 0.967 | 1.1 | 0.954 | 0.743 |  |  | 0.707 | 0.498 | 0.425 | 1.02
4 | PC-14 | 1.11 | 1.14 | 0.786 | 1.08 | 1.18 | 0.404 | 0.152 | 0.0788 | 0.0565 | 1.02 | 1.13 | 0.898 | 0.552 | 0.683 | 0.714 | 0.141 | 0.0852 | 0.0777 | 0.691
5 | RERF-LC-KJ | 1.09 | 1.09 | 0.814 | 1.06 | 1.02 | 0.682 | 0.501 | 0.237 | 0.211 | 1.05 | 0.912 | 0.975 | 0.828 | 0.823 | 0.717 | 0.516 | 0.223 | 0.244 | 0.95
6 | SK-LU-1 | 1.21 | 1.12 | 0.805 | 0.975 | 1.28 | 0.274 | 0.191 | 0.207 | 0.165 | 0.996 | 1.1 | 0.968 | 0.83 | 0.372 | 0.198 | 0.19 | 0.169 | 0.161 | 0.704
7 | SK-MES-1 | 1.18 | 1.14 | 0.818 | 1.08 | 1.1 | 0.334 | 0.213 | 0.217 | 0.127 | 1.04 | 0.634 | 0.364 | 0.316 | 0.718 | 0.582 | 0.262 | 0.184 | 0.11 | 0.572
8 | SW 1573 | 1.05 | 1.09 | 0.861 | 0.999 | 1.21 | 0.277 | 0.187 | 0.137 | 0.076 | 1.01 | 1.03 | 0.938 | 0.532 | 0.678 | 0.583 | 0.186 | 0.134 | 0.119 | 0.622
